For one assay, the target named is FGFR1 (Homo sapiens (Human), UniProt P11362). In words: FGFR biochemical assay (LanthaScreen TR-FRET kinase assay), FGFR1. (TR-FRET usually uses a lanthanide donor and a delayed reading to cut background.)
For a further assay, the target named is FGFR2 (Homo sapiens (Human), UniProt P21802). In words: FGFR biochemical assay (LanthaScreen TR-FRET kinase assay), FGFR2.
Another assay deals with FGFR3 (Homo sapiens (Human), UniProt P22607). The assay is described as follows: FGFR biochemical assay (LanthaScreen TR-FRET kinase assay), FGFR3.
The mark [1] stands for this setting: read-out: FGFR1 IC50, incubation with enzyme at room temperature for 10 minutes before substrate, ATP 28 μM, FGFR1 0.01 nM.
Setting [2] is: read-out: FGFR2 IC50, incubation with enzyme at room temperature for 10 minutes before substrate, ATP 22 μM, FGFR2 0.01 nM.
The mark [3] stands for this setting: read-out: FGFR3 IC50, incubation with enzyme at room temperature for 10 minutes before substrate, ATP 35 μM, FGFR3 0.1 nM.

Molecules are shown by their SMILES. Like-named read-outs stand apart in the source and are kept apart here.

FGFR2, sequence (P21802 22-821): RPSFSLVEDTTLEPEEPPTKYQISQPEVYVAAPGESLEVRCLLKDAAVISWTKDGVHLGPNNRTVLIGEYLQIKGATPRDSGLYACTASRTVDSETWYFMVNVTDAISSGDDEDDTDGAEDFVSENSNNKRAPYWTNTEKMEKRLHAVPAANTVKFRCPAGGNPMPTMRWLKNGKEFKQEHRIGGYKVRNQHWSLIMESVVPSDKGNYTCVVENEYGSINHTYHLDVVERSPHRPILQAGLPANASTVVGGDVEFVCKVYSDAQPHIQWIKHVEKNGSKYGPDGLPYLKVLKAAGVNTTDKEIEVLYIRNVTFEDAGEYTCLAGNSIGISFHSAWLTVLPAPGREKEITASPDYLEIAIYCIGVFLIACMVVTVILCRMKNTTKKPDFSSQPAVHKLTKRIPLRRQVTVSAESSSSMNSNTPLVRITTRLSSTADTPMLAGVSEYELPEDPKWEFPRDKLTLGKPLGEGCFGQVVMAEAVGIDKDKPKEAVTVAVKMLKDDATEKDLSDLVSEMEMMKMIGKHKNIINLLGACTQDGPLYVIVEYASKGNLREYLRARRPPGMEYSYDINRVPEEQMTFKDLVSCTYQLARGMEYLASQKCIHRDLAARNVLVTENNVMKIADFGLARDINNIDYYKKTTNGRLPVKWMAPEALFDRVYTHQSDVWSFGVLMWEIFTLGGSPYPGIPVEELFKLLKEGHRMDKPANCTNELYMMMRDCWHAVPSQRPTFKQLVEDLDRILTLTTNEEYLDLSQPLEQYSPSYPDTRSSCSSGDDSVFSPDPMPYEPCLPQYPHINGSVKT
FGFR1, sequence (P11362 22-822): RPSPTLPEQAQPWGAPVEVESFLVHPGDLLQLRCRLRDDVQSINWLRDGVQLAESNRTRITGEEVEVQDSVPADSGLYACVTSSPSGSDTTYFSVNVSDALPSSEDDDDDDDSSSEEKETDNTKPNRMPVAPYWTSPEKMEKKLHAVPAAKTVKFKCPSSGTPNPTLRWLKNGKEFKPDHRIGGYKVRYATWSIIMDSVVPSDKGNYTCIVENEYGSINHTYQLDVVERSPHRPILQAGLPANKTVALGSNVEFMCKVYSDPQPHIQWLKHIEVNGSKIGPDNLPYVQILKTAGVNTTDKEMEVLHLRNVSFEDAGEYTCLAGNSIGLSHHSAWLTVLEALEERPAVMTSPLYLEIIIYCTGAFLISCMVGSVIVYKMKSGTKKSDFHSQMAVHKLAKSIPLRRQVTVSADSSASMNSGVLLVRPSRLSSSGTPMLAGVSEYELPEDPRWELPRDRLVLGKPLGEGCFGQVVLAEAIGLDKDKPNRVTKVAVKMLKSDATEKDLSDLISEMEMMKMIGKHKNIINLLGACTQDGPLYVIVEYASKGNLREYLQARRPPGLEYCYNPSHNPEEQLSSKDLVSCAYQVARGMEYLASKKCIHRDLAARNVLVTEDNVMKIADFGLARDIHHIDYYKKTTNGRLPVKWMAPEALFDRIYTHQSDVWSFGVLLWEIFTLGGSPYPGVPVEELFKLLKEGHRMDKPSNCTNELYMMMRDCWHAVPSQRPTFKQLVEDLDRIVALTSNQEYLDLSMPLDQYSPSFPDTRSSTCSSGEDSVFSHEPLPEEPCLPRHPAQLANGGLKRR
FGFR3, sequence (P22607 23-806): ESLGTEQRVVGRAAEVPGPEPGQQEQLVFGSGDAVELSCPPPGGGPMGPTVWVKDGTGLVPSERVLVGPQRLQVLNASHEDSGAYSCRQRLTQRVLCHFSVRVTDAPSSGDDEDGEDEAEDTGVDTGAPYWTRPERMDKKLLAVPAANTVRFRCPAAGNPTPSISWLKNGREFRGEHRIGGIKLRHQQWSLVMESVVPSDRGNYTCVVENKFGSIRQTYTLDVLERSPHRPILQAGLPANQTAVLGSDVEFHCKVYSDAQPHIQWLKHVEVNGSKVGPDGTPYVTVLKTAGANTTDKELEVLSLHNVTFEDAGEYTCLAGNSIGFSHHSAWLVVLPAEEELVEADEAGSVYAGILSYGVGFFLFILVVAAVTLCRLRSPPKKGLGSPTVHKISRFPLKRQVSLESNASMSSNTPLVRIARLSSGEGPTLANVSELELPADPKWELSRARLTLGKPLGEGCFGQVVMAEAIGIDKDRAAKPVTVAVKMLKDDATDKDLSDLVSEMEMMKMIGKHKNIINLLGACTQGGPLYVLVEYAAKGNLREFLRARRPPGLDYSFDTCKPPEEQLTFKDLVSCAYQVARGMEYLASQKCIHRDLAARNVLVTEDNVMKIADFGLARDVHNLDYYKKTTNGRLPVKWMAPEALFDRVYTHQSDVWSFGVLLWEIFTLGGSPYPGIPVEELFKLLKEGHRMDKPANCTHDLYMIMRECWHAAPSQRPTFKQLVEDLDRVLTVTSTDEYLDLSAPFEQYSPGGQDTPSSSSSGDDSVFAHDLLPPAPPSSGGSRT
Description for FGFR1: (§1) Convert Ratio values to percent inhibition values (Percent inhibition=(max−sample Ratio)/(max−min)*100) where “min” means the Ratio of no enzyme control and “max” means the Ratio of DMSO control. • Data are analyzed and curve fitting is performed by XLFit Excel add-in version 5.4.0.8. The IC50 calculation equation is: Y=Bottom+(Top-Bottom)/(1+ (IC50/X)^HillSlope.
Description for FGFR2: as §1
Description for FGFR3: as §1

What is called IC50 is the concentration that gives 50% inhibition. Regarding `C=CC(=O)Nc1ccc(-c2c(-c3ccc(Oc4cccc(C)n4)cc3)c(C(N)=O)c3cnccn23)cn1` [Example 3, 6-(6-acrylamidopyridin-3-yl)-7-(4-((6-methylpyridin-2-yl)oxy)phenyl)pyrrolo[1,2-a]pyrazine-8-carboxamide], the IC50 at FGFR1 (setting [1]), on FGFR2 (setting [2]) and on FGFR3 (setting [3]) was below 10 nM each time.
For the compound `C=CC(=O)Nc1cc(C)c(-c2c(-c3ccc(Oc4cccc(C)n4)cc3)c(C(N)=O)c3cnccn23)cn1` [Example 4, 6-(6-acrylamido-4-methylpyridin-3-yl)-7-(4-((6-methylpyridin-2-yl)oxy)phenyl)pyrrolo[1,2-a]pyrazine-8-carboxamide], the IC50 against FGFR1, against FGFR2 and on FGFR3 was 10 to 100 nM throughout.
For `Cc1cn2c(-c3ccc(NC(=O)/C=C/CN(C)C)cc3)c(-c3ccc(Oc4cccc(C)n4)cc3)c(C(N)=O)c2cn1` [Example 9, (E)-6-(4-(4-(dimethylamino)but-2-enamido)phenyl)-3-methyl-7-(4-((6-methylpyridin-2-yl)oxy)phenyl)pyrrolo[1,2-a]pyrazine-8-carboxamide], the IC50 against FGFR1 is 100 to 1000 nM; at FGFR2 (setting [2]), below 10 nM; against FGFR3 it was 10 to 100 nM.
With `Cc1cn2c(-c3ccc(NC(=O)/C=C/CN(C)C)nc3)c(-c3ccc(Oc4cccc(C)n4)cc3)c(C(N)=O)c2cn1` [Example 10, (E)-6-(6-(4-(dimethylamino)but-2-enamido)pyridin-3-yl)-3-methyl-7-(4-((6-methylpyridin-2-yl)oxy)phenyl)pyrrolo[1,2-a]pyrazine-8-carboxamide], the IC50 was 10 to 100 nM at FGFR1, below 10 nM at FGFR2 (setting [2]) and 10 to 100 nM against FGFR3.
Regarding `C=CC(=O)N1CCc2cc(-c3c(-c4ccc(Oc5cccc(C)n5)cc4)c(C(N)=O)c4cnccn34)ccc21` [Example 14, 6-(1-acryloylindolin-5-yl)-7-(4-((6-methylpyridin-2-yl)oxy)phenyl)pyrrolo[1,2-a]pyrazine-8-carboxamide], the IC50 at FGFR1 (setting [1]), on FGFR2 (setting [2]) and on FGFR3 (setting [3]) was below 10 nM each time.
Consider `C=CC(=O)Nc1ccc(-c2c(-c3ccc(Oc4cccc(C)n4)cc3)c(C(N)=O)c3ccncn23)cc1` [Example 15, 7-(4-acrylamidophenyl)-6-(4-((6-methylpyridin-2-yl)oxy)phenyl)pyrrolo[1,2-c]pyrimidine-5-carboxamide], for which the values for the IC50 against FGFR1, at FGFR2 (setting [2]) and at FGFR3 were 100 to 1000 nM, below 10 nM and 10 to 100 nM, respectively.
In the case of `C=CC(=O)Nc1ccc(-c2c(-c3ccc(Oc4cccc(C)n4)cc3)c(C(N)=O)c3cnc(OC)cn23)cc1` [Example 17, 6-(4-acrylamidophenyl)-3-methoxy-7-(4-((6-methylpyridin-2-yl)oxy)phenyl)pyrrolo[1,2-a]pyrazine-8-carboxamide], the results for the IC50 against FGFR1, on FGFR2 (setting [2]) and at FGFR3 were 10 to 100 nM, below 10 nM and 10 to 100 nM, respectively.
For `C=CC(=O)Nc1ccc(-c2c(-c3ccc(Oc4cccc(C)n4)cc3)c(C(N)=O)c3cnc(S(=O)(=O)NC)cn23)cc1` [Example 18, 6-(4-acrylamidophenyl)-7-(4-((6-methylpyridin-2-yl)oxy)phenyl)-3-(N-methylsulfamoyl)pyrrolo[1,2-a]pyrazine-8-carboxamide], the IC50 on FGFR1 was 100 to 1000 nM; on FGFR2 (setting [2]), below 10 nM; against FGFR3 it was 10 to 100 nM.
Take `C=CC(=O)Nc1ccc(-c2c(-c3ccc(Oc4nc(C)cs4)cc3)c(C(N)=O)c3cnccn23)cc1` [Example 19, 6-(4-acrylamidophenyl)-7-(4-((4-methylthiazol-2-yl)oxy)phenyl)pyrrolo[1,2-a]pyrazine-8-carboxamide]: the IC50 against FGFR1 is 10 to 100 nM; at FGFR2 (setting [2]), below 10 nM; at FGFR3, 10 to 100 nM.
Take `C=CC(=O)Nc1ccc(-c2c(-c3ccc(Oc4cccc(C)n4)cc3)c(C(N)=O)c3cccnn23)cc1` [Example 20, 7-(4-acrylamidophenyl)-6-(4-((6-methylpyridin-2-yl)oxy)phenyl)pyrrolo[1,2-b]pyridazine-5-carboxamide]: the IC50 was 10 to 100 nM at FGFR1, below 10 nM at FGFR2 (setting [2]) and 10 to 100 nM against FGFR3.
On to `C=CC(=O)Nc1ccc(-c2c(-c3ccc(Oc4cccc(C)n4)cc3)c(C(N)=O)c3cnc(C4CN(C)C4)cn23)cc1` [Example 21, 6-(4-acrylamidophenyl)-3-(1-methylazetidin-3-yl)-7-(4-((6-methylpyridin-2-yl)oxy)phenyl)pyrrolo[1,2-a]pyrazine-8-carboxamide], for which the IC50 was 100 to 1000 nM at FGFR1, below 10 nM on FGFR2 (setting [2]) and 10 to 100 nM on FGFR3.
On to `C=CC(=O)Nc1ccc(-c2c(-c3ccc(OC)cc3)c(C(N)=O)c3cnccn23)cc1` [Example 22, 6-(4-acrylamidophenyl)-7-(4-methoxyphenyl)pyrrolo[1,2-a]pyrazine-8-carboxamide], for which the values for the IC50 against FGFR1, at FGFR2 and against FGFR3 were 100 to 1000 nM, 10 to 100 nM and 100 to 1000 nM, respectively.
Regarding `C=CC(=O)Nc1ccc(-c2c(-c3ccc(Oc4cccc(C)n4)cc3)c(C#N)c3sccn23)cc1` [Example 24, N-(4-(7-cyano-6-(4-((6-methylpyridin-2-yl)oxy)phenyl)pyrrolo[2,1-b]thiazol-5-yl)phenyl) acrylamide], the IC50 at FGFR1 (setting [1]), on FGFR2 (setting [2]) and at FGFR3 (setting [3]) was above 1000 nM each time.
For the compound `C=CC(=O)Nc1ccc(-c2c(-c3ccc(Oc4cccc(C)n4)c(OC)c3)c(C(N)=O)c3cnccn23)cc1` [Example 25, 6-(4-acrylamidophenyl)-7-(3-methoxy-4-((6-methylpyridin-2-yl)oxy)phenyl)pyrrolo[1,2-a]pyrazine-8-carboxamide], the results for the IC50 against FGFR1, at FGFR2 (setting [2]) and against FGFR3 were 100 to 1000 nM, below 10 nM and 10 to 100 nM, respectively.
Consider `C=CC(=O)Nc1ccc(-c2c(-c3ccc(Oc4ccccn4)cc3)c(C(N)=O)c3cnccn23)cc1` [Example 26, 6-(4-acrylamidophenyl)-7-(4-(pyridin-2-yloxy)phenyl)pyrrolo[1,2-a]pyrazine-8-carboxamide], for which the results for the IC50 on FGFR1, at FGFR2 (setting [2]) and against FGFR3 were 100 to 1000 nM, below 10 nM and 10 to 100 nM, respectively.
In the case of `C=CC(=O)Nc1ccc(-c2c(-c3ccc(S(=O)(=O)C4CC4)cc3)c(C(N)=O)c3cnccn23)cc1` [Example 27, 6-(4-acrylamidophenyl)-7-(4-(cyclopropylsulfonyl)phenyl)pyrrolo[1,2-a]pyrazine-8-carboxamide], the half-inhibitory concentration (IC50) was above 1000 nM on FGFR1 (setting [1]), 100 to 1000 nM against FGFR2 and 100 to 1000 nM against FGFR3.
Take `C=CC(=O)Nc1ccc(-c2c(-c3ccc(OC4CCCC4)cc3)c(C(N)=O)c3cnccn23)cc1` [Example 28, 6-(4-acrylamidophenyl)-7-(4-(cyclopentyloxy)phenyl)pyrrolo[1,2-a]pyrazine-8-carboxamide]: the IC50 is 100 to 1000 nM against FGFR1, below 10 nM at FGFR2 (setting [2]) and below 10 nM on FGFR3 (setting [3]).
Consider `C=C(F)C(=O)Nc1ccc(-c2c(-c3ccc(Oc4nccc(C)n4)c(F)c3)c(C(N)=O)c3ccccn23)cc1` [Example 107, 2-(3-fluoro-4-((4-methylpyrimidin-2-yl)oxy)phenyl)-3-(4-(2-fluoroacrylamido)phenyl) indolizine-1-carboxamide], for which the IC50 fell in the range of 100 to 1000 nM on FGFR1 and 10 to 100 nM against FGFR3.
